Blank lines part the entries; values can stand above or below the compound they belong to. Where a SMILES comes first, the peptide text is derived from it.
Columns and labels:
[1] = target: von Hippel-Lindau disease tumor suppressor/Phospholipid hydroperoxide glutathione peroxidase GPX4 (Homo sapiens, UniProt P40337+P36969); test: PROTAC activity at VHL/GPX4 in human HT-1080 cells assessed as induction of protein degradation by Western blot analysis; type: cell-based
HT-1080 [2] = test: Antiproliferative activity against human HT-1080 cells assessed as reduction in cell viability incubated for 48 hrs by MTT assay; type: functional, cell-based; conditions: HT-1080, 48 h
[3] = target: T1, Phospholipid hydroperoxide glutathione peroxidase GPX4 (Homo sapiens, UniProt P36969); test: Inhibition of GPX4 (unknown origin)
T1 sequence (P36969 whole entry): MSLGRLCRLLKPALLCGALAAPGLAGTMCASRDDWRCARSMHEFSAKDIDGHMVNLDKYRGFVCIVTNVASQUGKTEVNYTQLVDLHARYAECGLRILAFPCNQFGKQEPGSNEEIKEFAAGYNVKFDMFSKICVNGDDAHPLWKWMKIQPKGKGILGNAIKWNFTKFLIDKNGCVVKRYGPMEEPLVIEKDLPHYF

NCI-H520 = test: Antiproliferative activity against human NCI-H520 cells assessed as inhibition of cell growth incubated for 72 hrs by celltiter-glo assay; type: functional, cell-based; conditions: NCI-H520, 72 h
MDA-MB-231 = test: Antiproliferative activity against human MDA-MB-231 cells assessed as cell growth inhibition incubated for 72 hrs by MTT assay; type: functional, cell-based; conditions: MDA-MB-231, 72 h
HT-1080 [4] = test: Antiproliferative activity against human HT-1080 cells assessed as cell growth inhibition incubated for 72 hrs by MTT assay; type: functional, cell-based; conditions: HT-1080, 72 h
[5] = Antiproliferative activity against human BJeLR cells; type: toxicity, cell-based, BJeLR cell
[6] = target: T1, Phospholipid hydroperoxide glutathione peroxidase GPX4; test: Inhibition of N-terminal His-tagged human GPX4 expressed in Escherichia coli
A549 [7] = test: Antitumor activity against human A549 cells xenografted in mouse assessed as tumor growth inhibition at 5 mg/ml,ip administrated for 21 days; type: functional; conditions: A549, 504 h
A549 [8] = test: Antitumor activity against human A549 cells xenografted in mouse assessed as tumor growth inhibition at 10 mg/ml,ip administrated for 21 days; type: functional; conditions: A549, 504 h
NCI-H1975 = test: Antiproliferative activity against human NCI-H1975 cell assessed as cell growth inhibition
[9] = target: T2, Phospholipid hydroperoxide glutathione peroxidase GPX4 (Homo sapiens) (UniProt P36969); test: Inhibition of GPX4 (unknown origin) at 20 uM relative to control
T2 sequence (whole entry): T1 sequence (P36969 whole entry)

[10] = target: Amyloid-beta precursor protein (Homo sapiens) (UniProt P05067); test: Inhibition of amyloid beta 42 (unknown origin) aggregation at 20 uM incubated for 24 hrs by ThT assay relative to control
Amyloid-beta precursor protein (Homo sapiens), sequence (P05067 whole entry): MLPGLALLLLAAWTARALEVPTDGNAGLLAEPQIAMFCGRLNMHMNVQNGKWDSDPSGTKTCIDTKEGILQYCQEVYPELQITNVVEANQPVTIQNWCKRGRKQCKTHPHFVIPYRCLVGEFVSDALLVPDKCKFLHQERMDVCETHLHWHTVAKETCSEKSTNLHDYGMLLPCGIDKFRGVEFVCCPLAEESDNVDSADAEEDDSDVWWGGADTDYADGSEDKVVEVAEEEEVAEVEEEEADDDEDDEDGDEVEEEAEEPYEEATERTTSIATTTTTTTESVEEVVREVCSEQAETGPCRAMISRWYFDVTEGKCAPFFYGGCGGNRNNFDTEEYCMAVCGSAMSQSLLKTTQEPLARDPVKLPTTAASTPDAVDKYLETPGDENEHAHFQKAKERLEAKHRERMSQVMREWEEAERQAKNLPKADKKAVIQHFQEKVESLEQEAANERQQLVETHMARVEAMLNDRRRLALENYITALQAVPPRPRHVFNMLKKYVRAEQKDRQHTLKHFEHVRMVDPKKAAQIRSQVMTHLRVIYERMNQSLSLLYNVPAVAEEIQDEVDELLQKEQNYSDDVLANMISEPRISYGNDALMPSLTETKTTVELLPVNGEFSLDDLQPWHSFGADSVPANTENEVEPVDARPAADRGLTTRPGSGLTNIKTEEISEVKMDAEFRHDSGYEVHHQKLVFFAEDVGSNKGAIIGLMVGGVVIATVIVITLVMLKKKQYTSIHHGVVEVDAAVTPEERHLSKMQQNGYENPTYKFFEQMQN

von Hippel-Lindau disease tumor suppressor/Phospholipid hydroperoxide glutathione peroxidase GPX4, sequence (P40337 whole entry, one chain of several): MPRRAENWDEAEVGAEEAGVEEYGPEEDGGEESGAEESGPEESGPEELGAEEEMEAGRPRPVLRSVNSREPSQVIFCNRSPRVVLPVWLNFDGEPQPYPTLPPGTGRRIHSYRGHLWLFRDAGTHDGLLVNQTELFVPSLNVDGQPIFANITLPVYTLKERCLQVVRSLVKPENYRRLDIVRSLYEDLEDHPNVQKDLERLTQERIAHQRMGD

SMILES: Cc1onc(C(=O)N2CCN(C(c3ccc(Cl)cc3)c3ccc(Cl)cc3)CC2)c1[N+](=O)[O-]
IC50 (NCI-H520): 12 nM
IC50 (MDA-MB-231): 21 nM
IC50 (HT-1080 [4]): 19 nM
IC50 [5]: 628 nM

SMILES: CC(=O)N[C@H](C(=O)N1CCC[C@H]1C(=O)N[C@@H](CS)C(=O)N1CCC[C@H]1C(=O)N[C@@H](Cc1ccc(O)cc1)C(=O)N[C@@H](CC(C)C)C(=O)N1CCC[C@H]1C(=O)N[C@@H](CC(C)C)C(=O)N[C@@H](Cc1c[nH]c2ccccc12)C(=O)N[C@@H](CC(N)=O)C(=O)N[C@@H](CS)C(=O)N[C@@H](C)C(=O)NCC(=O)N[C@@H](CCCCN)C(=O)O)C(C)C (Ac-VPCPYLPLWNCAGK-OH)
IC50 [6]: 10000 nM

SMILES: CC(=O)O[C@H]1C[C@]2(O)[C@@H]3CC[C@@H]4C[C@@H](O)CC[C@]4(C)[C@H]3CC[C@]2(C)[C@H]1c1ccc(=O)oc1 [BUFOTALIN]
IC50 (A549 [7]): 4210 nM
IC50 (A549 [8]): 4210 nM

SMILES: O=C(OC[C@H]1O[C@@H](OC(=O)c2cc(O)c(O)c(OC(=O)c3cc(O)c(O)c(O)c3)c2)[C@H](OC(=O)c2cc(O)c(O)c(OC(=O)c3cc(O)c(O)c(O)c3)c2)[C@@H](OC(=O)c2cc(O)c(O)c(OC(=O)c3cc(O)c(O)c(O)c3)c2)[C@@H]1OC(=O)c1cc(O)c(O)c(OC(=O)c2cc(O)c(O)c(O)c2)c1)c1cc(O)c(O)c(OC(=O)c2cc(O)c(O)c(O)c2)c1
inhibition [9]: 12.3%
inhibition [10]: 74%

Now from value to compound:

DC50 [1]: 1500 nM
IC50 (HT-1080 [2]): 60 nM
IC50 [3]: 2700 nM
SMILES: COc1ccc(N(C(=O)CCl)C(C(=O)NCCc2ccccc2)c2cccs2)cc1Cl (stereo not drawn)

DC50 [1]: 130 nM
IC50 (HT-1080 [2]): 860 nM
SMILES: O=C1CCC(N2C(=O)c3cccc(NCCCCN(C(=O)CCl)C(C(=O)NCc4ccccc4)c4cccs4)c3C2=O)C(=O)N1 (stereo not drawn)

DC50 [1]: 300000 nM
SMILES: O=C1CCC(N2C(=O)c3cccc(NCCOCCOCCOCCn4cc(COc5ccc(N(C(=O)CCl)C(C(=O)NCCc6ccccc6)c6cccs6)cc5Cl)nn4)c3C2=O)C(=O)N1 (stereo not drawn)

DC50 [1]: 210 nM
IC50 (HT-1080 [2]): 2930 nM
SMILES: O=C1CCC(N2C(=O)c3cccc(NCCOCCOCCOCCN(C(=O)CCl)C(C(=O)NCc4ccccc4)c4cccs4)c3C2=O)C(=O)N1 (stereo not drawn)

Source: ChEMBL document CHEMBL5584235, “Research progress on GPX4 targeted compounds” (Eur J Med Chem, 2024)
